Measurements taken from patent publication US20100119599A1 (ARCHER PHARMACEUTICALS, INC., priority 2006, published 2010).
Where two headings read alike, the source gives them in different places.

Tests used:
Aβ1-40 = assay: Measurement of Aβ1-40 in culture medium of 7W WT APP751 CHO cells by ELISA; type: cell-based, Chinese hamster; settings: for Aβ1-40 (% of control): CHO cells that overexpress APP751, zero = below the detection limit of the assay; for activity at 5 µM: Cricetulus griseus, 5 μM test compound, CHO cells stably transfected with human APP751, culture medium, ELISA, control DMSO;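 for all read-outs here: 5 µM test compound but RI-coded compounds at 10 µM for 24 hours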
Aβ1-42 = assay: Measurement of Aβ1-42 in culture medium of 7W WT APP751 CHO cells by ELISA; type: cell-based, Chinese hamster; settings: for Aβ1-42 (% of control): CHO cells that overexpress APP751, zero = below the detection limit of the assay; for activity at 5 µM: Cricetulus griseus, 5 μM test compound, CHO cells stably transfected with human APP751, culture medium, ELISA, control DMSO;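 for Aβ1-42 (% of control): 5 µM test compound but RI-coded compounds at 10 µM for 24 hours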
[1] = Table 1, 0 = no detectable amount
[2] = Table 1, 0 = no detectable amount, read-out: Aβ1-42 (% of control)

| SMILES | Aβ1-40 (% of control) (Aβ1-40) | Aβ1-42 (% of control) (Aβ1-42) | activity at 5 µM (Aβ1-40; [1]) [%] | activity at 5 µM (Aβ1-42; [2]) [%] | also measured |
| --- | --- | --- | --- | --- | --- |
| CCc1ccc(NC(=O)CSC2=C(C#N)C(c3cccs3)C(C(=O)Nc3ccccc3)=C(C)N2)cc1 (stereo not drawn) [RI_61] | 68.5 % of control | 51.4 % of control | – | – | – |
| CCc1ccc(C2C(C(=O)OC(C)C)=C(C)NC3=C2C(=O)CCC3)cc1 (stereo not drawn) [ST013191, methylethyl 4-(4-ethylphenyl)-2-methyl-5-oxo-1,4,6,7,8-pentahydroquinoline-3-carboxylate] | – | – | 33.4 | 98 | – |
| CC1=C(C(=O)Nc2ccc(Cl)cc2)C(c2ccccc2)C(C#N)=C(SCC(=O)Nc2ccccc2C)N1 (stereo not drawn) [RI_40] | 25.7 % of control | 43.2 % of control | – | – | – |
| CC1=C(C(=O)OCCc2ccccc2)C(c2ccccc2Br)C2=C(CC(c3ccccc3)CC2=O)N1 (stereo not drawn) [ST015234, 2-phenylethyl 4-(2-bromophenyl)-2-methyl-5-oxo-7-phenyl-1,4,6,7,8-pentahydroquinoline-3-carboxylate] | – | – | 51.8 | 54.8 | – |
| CCCCOC(=O)C1=C(C)NC2=C(C(=O)CCC2)C1c1ccccc1OCCCC (stereo not drawn) [ST013330, butyl 4-(2-butoxyphenyl)-2-methyl-5-oxo-1,4,6,7,8-pentahydroquinoline-3-carboxylate] | – | – | 38 | 86.5 | – |
| CC1=C(C(=O)OC(C)(C)C)C(c2ccc(Cl)cc2)C(C#N)=C(SCC(=O)Nc2cccc(C)c2C)N1 (stereo not drawn) [ST050424, tert-butyl 6-{[N-(2,3-dimethylphenyl)carbamoyl]methylthio}-4-(4-chlorophenyl)-5-cyano-2-methyl-1,4-dihydropyridine-3-carboxylate] | 41.21 % of control | 52.29 % of control | – | – | – |
| CC1=C(C(=O)Nc2ccccc2)C(c2cccs2)C(C#N)=C(SCC(=O)Nc2ccc(F)cc2)N1 (stereo not drawn) [RI_76] | 46.2 % of control | 54.6 % of control | – | – | – |
| CCOc1cc(C2C(C(=O)OCc3ccccc3)=C(C)NC3=C2C(=O)CC(c2ccccc2)C3)ccc1O (stereo not drawn) [ST017228, phenylmethyl 4-(3-ethoxy-4-hydroxyphenyl)-2-methyl-5-oxo-7-phenyl-1,4,6,7,8-pentahydroquinoline-3-carboxylate] | – | – | 95.6 | 60.2 | – |
| CCCCCc1c2c(C)c(C(=O)OCC)cc-2cc2n1C(C)C(C)=C2C (stereo not drawn) [ST020165, ethyl 3,6,7,8-tetramethyl-4-pentyl-6-hydropyrrolo[4,5-f]indolizine-2-carboxyla te, chloride] | – | – | – | – | activity at 5 µM (Aβ1-40; Table 3): 90.9%; activity at 5 µM (Aβ1-42; Table 3, read-out: Aβ-42 (% of control)): 23.1% |
| CC1=C(C(=O)Nc2ccc(Cl)cc2)C(c2cccs2)C(C#N)=C(SCC(=O)Nc2ccc(C)c(Cl)c2)N1 (stereo not drawn) [RI_60] | 59.4 % of control | 71.1 % of control | – | – | – |
| N#CC1=C(N)Nc2c(c(=O)oc3ccccc23)C1c1ccc(Br)cc1 (stereo not drawn) [ST014147, 2-amino-4-(4-bromophenyl)-5-oxo-1,4-dihydrochromeno[4,3-b]pyridine-3-carbonitrile] | 82.09 % of control | 68.55 % of control | – | – | – |
| COC(=O)C1=C(C)NC2=C(C(=O)CC(c3ccccc3)C2)C1c1cc(OC)ccc1OC (stereo not drawn) [ST013117, methyl 4-(2,5-dimethoxyphenyl)-2-methyl-5-oxo-7-phenyl-1,4,6,7,8-pentahydroquinoline-3-carboxylate] | – | – | 22.4 | 46.1 | – |
| CCc1ccc(NC(=O)CSC2=C(C#N)C(c3ccsc3)C(C(=O)Nc3ccccc3)=C(C)N2)cc1 (stereo not drawn) [RI_62] | 91.6 % of control | 62.4 % of control | – | – | – |
| COc1ccc(C2C(C(=O)OC3CCCCCC3)=C(C)NC3=C2C(=O)CC(C)(C)C3)c(OC)c1OC (stereo not drawn) [ST024504, cycloheptyl 2,7,7-trimethyl-5-oxo-4-(2,3,4-trimethoxyphenyl)-1,4,6,7,8-pentahydroquinoline-3-carboxylate] | – | – | 0.415 | 0 | – |
| CCOC(=O)C1=C(C)NC2=C(C(=O)CCC2)C1c1cccnc1 (stereo not drawn) [ST013070, ethyl 2-methyl-5-oxo-4-(3-pyridyl)-1,4,6,7,8-pentahydroquinoline-3-carboxylate] | – | – | 34 | 82.4 | – |
| CC1=C(C(=O)OCCOc2ccccc2)C(c2ccc(Br)cc2)C2=C(CCCC2=O)N1 (stereo not drawn) [ST014890, 2-phenoxyethyl 4-(4-bromophenyl)-2-methyl-5-oxo-1,4,6,7,8-pentahydroquinoline-3-carboxylate] | – | – | 13.2 | 67.5 | – |
| COc1ccc(COC(=O)C2=C(C)NC3=C(C(=O)CCC3)C2c2cccc(C)c2)cc1 (stereo not drawn) [ST052354, (4-methoxyphenyl)methyl 2-methyl-4-(3-methylphenyl)-5-oxo-1,4,6,7,8-pentahydroquinoline-3-carboxylate] | – | – | 95.1 | 57.2 | – |

| SMILES | Aβ1-40 (% of control) (Aβ1-40) | Aβ1-42 (% of control) (Aβ1-42) | activity at 5 µM (Aβ1-40; [1]) [%] | activity at 5 µM (Aβ1-42; [2]) [%] | also measured |
| --- | --- | --- | --- | --- | --- |
| COC(=O)C1=C(C)NC2=C(C(=O)CC(c3cccs3)C2)C1c1cccc(C(F)(F)F)c1 (stereo not drawn) [ST052393, methyl 2-methyl-5-oxo-7-(2-thienyl)-4-[3-(trifluoromethyl)phenyl]-1,4,6,7,8-pentahydroquinoline-3-carboxylate] | – | – | 34.2 | 48.2 | – |
| CCCCCOC(=O)C1=C(C)NC2=C(C(=O)CCC2)C1c1ccccc1OCC (stereo not drawn) [ST015174, pentyl 4-(2-ethoxyphenyl)-2-methyl-5-oxo-1,4,6,7,8-pentahydroquinoline-3-carboxylate] | – | – | 17.2 | 0 | – |
| COc1ccccc1C1C(C(=O)OC2CCCCC2)=C(C)NC2=C1C(=O)CCC2 (stereo not drawn) [ST013339, cyclohexyl 4-(2-methoxyphenyl)-2-methyl-5-oxo-1,4,6,7,8-pentahydroquinoline-3-carboxylate] | – | – | 43.6 | 6.87 | – |
| CC1=C(C(=O)OCC(C)C)C(c2cc([N+](=O)[O-])ccc2Cl)C2=C(CCCC2=O)N1 (stereo not drawn) [ST052351, 2-methylpropyl 4-(2-chloro-5-nitrophenyl)-2-methyl-5-oxo-1,4,6,7,8-pentahydroquinoline-3-carboxylate] | – | – | 19.3 | 20.3 | – |
| COc1cc(CNC(=O)CSC2=C(C#N)C(c3cccs3)C(C(=O)Nc3ccccc3)=C(C)N2)cc(OC)c1OC (stereo not drawn) [RI_18] | 49.2 % of control | 44.1 % of control | – | – | – |
| CC1=C(C(=O)OCc2ccccc2)C(c2ccccc2C(F)(F)F)C2=C(CC(C)(C)CC2=O)N1 (stereo not drawn) [ST014881, phenylmethyl 2,7,7-trimethyl-5-oxo-4-[2-(trifluoromethyl)phenyl]-1,4,6,7,8-pentahydroquinoline-3-carboxylate] | – | – | 0 | 49.9 | – |
| COc1ccc(COC(=O)C2=C(C)NC3=C(C(=O)CCC3)C2c2ccc(Br)cc2)cc1 (stereo not drawn) [ST018645, (4-methoxyphenyl)methyl 4-(4-bromophenyl)-2-methyl-5-oxo-1,4,6,7,8-pentahydroquinoline-3-carboxylate] | – | – | 7.03 | 18 | – |
| CCCOC(=O)C1=C(C)NC2=C(C(=O)CC(C)(C)C2)C1c1ccc(OC)cc1OC (stereo not drawn) [ST017226, propyl 4-(2,4-dimethoxyphenyl)-2,7,7-trimethyl-5-oxo-1,4,6,7,8-pentahydroquinoline-3-carboxylate] | – | – | 23.6 | 26.5 | – |
| CC1=C(C(=O)OC2CCCCC2)C(c2ccccc2Cl)C2=C(CC(C)(C)CC2=O)N1 (stereo not drawn) [ST013235, cyclohexyl 4-(2-chlorophenyl)-2,7,7-trimethyl-5-oxo-1,4,6,7,8-pentahydroquinoline-3-carboxylate] | – | – | 0 | 43 | – |
| CCOc1cc(C2C(C(=O)OCc3ccccc3)=C(C)NC3=C2C(=O)CCC3)ccc1O (stereo not drawn) [ST013242, phenylmethyl 4-(3-ethoxy-4-hydroxyphenyl)-2-methyl-5-oxo-1,4,6,7,8-pentahydroquinoline-3-carboxylate] | – | – | 81.2 | 64.4 | – |
| CCOc1cc(C2C(C(=O)OCCc3ccccc3)=C(C)NC3=C2C(=O)CCC3)cc(Br)c1O (stereo not drawn) [ST015061, 2-phenylethyl 4-(3-bromo-5-ethoxy-4-hydroxyphenyl)-2-methyl-5-oxo-1,4,6,7,8-pentahydroquinoline-3-carboxylate] | – | – | 40.8 | 33.5 | – |
| N#CC1=C(N)N(Cc2ccccc2)C2=C(COC/C2=C/c2cccnc2)C1c1cccnc1 (stereo not drawn) [ST014245, 2-amino-1-benzyl-4-(3-pyridyl)-8-(3-pyridylmethylene)-1,4,7-trihydro-5H-pyrano[4,3-b]pyridine-3-carbonitrile] | 75.44 % of control | 53.59 % of control | – | – | – |
| CC1=C(C(=O)OC2CCCCC2)C(c2cccc(Cl)c2Cl)C2=C(CCCC2=O)N1 (stereo not drawn) [ST013188, cyclohexyl 4-(2,3-dichlorophenyl)-2-methyl-5-oxo-1,4,6,7,8-pentahydroquinoline-3-carboxylate] | – | – | 0 | 47.1 | – |
| CCCCc1ccc(NC(=O)CSC2=C(C#N)C(c3ccsc3)C(C(=O)Nc3ccccc3)=C(C)N2)cc1 (stereo not drawn) [RI_65] | 51.7 % of control | 38.1 % of control | – | – | – |
| COC(=O)C1=CN(Cc2ccc(OC)c(OC)c2)C=C(C(=O)OC)C1c1ccc(OC)c(OC)c1 [ST038162, methyl 4-(3,4-dimethoxyphenyl)-1-[(3,4-dimethoxyphenyl)methyl]-5-(methoxycarbonyl)-1,4-dihydropyridine-3-carboxylate] | 49.65 % of control | 58.62 % of control | – | – | – |
| CCCCCOC(=O)C1=C(C)NC2=C(C(=O)CCC2)C1c1ccc(OC)c(OC)c1OC (stereo not drawn) [ST013346, pentyl 2-methyl-5-oxo-4-(2,3,4-trimethoxyphenyl)-1,4,6,7,8-pentahydroquinoline-3-carboxylate] | – | – | 16.3 | 77.7 | – |
